These results are taken from patent publication US20230330067A1, “NOVEL THIOHYDANTOIN DERIVATIVES AND USES THEREOF” (CELROS BIOTECH, priority 2020, published 2023).

SMILES strings stand for the structures.

The target in one assay is T1, human Nox1 (Homo sapiens, UniProt Q9Y5S8).
T1 construct: made in house; host or cells: transgenic Drosophila (UAS-hNox1/UAS-dDuox-RNAi; Da-GAL4/+), membranes from fly homogenate
T1 sequence (Q9Y5S8 1-564): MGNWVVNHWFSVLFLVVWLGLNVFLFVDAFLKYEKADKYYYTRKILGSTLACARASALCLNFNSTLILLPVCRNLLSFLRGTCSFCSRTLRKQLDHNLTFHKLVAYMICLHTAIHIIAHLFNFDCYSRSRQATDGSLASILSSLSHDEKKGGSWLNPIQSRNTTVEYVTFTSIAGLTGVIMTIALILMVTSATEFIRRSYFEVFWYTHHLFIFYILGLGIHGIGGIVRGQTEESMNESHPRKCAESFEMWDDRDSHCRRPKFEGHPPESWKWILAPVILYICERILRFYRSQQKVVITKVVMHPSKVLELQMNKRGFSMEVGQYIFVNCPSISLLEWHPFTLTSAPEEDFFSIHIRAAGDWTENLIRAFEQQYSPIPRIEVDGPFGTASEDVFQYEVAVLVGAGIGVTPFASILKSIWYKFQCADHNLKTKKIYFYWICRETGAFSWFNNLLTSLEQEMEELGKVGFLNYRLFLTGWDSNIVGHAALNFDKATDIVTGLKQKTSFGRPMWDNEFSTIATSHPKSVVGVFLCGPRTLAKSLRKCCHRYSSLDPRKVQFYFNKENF
Put plainly: Lucigenin chemiluminescence assay, human Nox1. Type of assay: biochemical. The following applies: Drosophila membranes expressing hNox1; average of three assays. The text has this:
(§1) Human Nox isozymes were provided from transgenic flies expressing human Nox isozymes under the daughterless (Da)-GAL4 promoter. The genotype of each fly line is shown below. • 1) Human Nox1: UAS-hNox1/UAS-dDuox-RNAi; Da-GAL4/+ • 2) Human Nox2: UAS-hNox2/UAS-dDuox-RNAi; Da-GAL4/+ • 3) Human Nox4: UAS-hNox4/UAS-dDuox-RNAi; Da-GAL4/+
(§2) Transgenic flies were homogenized with PBS containing protease inhibitors (Aprotinin and Leupeptin) to obtain Drosophila membranes of each Nox isozyme. The membranes were incubated with compounds (100 μM, 10 μM, 1 μM, 0.1 μM, 0.01 μM, 0.001 μM, and 0 μM) for 10 min on a shaker. After that, a mixture of 500 μM NADPH (beta-nicotinamide adenine dinucleotide 2′-phosphate reduced tetrasodium salt hydrate; Sigma-Aldrich) and 400 μM lucigenin (N,N′-dimethyl-9,9′-biacridinium dinitrate; Sigma-Aldrich) in 1X HEPES (4-(2-hydroxyethyl)-1-piperazineethanesulfonic acid) buffer was added to the membrane. Lucigenin chemiluminescence was detected at 1 minute intervals for 10 min using a multimode microplate reader (SpectraMax iD3, Molecular Devices). IC50 values were calculated with Graph-Pad Prism 5 (GraphPad Software).
(§3) Lucigenin chemiluminescence assays were performed with Drosophila membranes expressing hNox1, hNox2 and hNox4. The assay was repeated three times and the average of the IC50 values was determined.

Assay [1] has as its system PFF-induced Parkinson's disease. Put plainly: PFF-induced Parkinson's disease mice. Type of assay: in vivo, C57BL/6 mice. The following applies: 10 mg/kg intraperitoneal daily for 3 months. As to the method:
In order to develop preformed fibrils (PFF)-induced Parkinson's disease, 8-12 week old C57BL/6 mice were stereotaxically inoculated with 5 μg of PFF into the right dorsal striatum (AP+0.2 mm, […], DV 2.6 mm). Five months post single inoculation of PFF, animals were intraperitoneally injected with the compound of Example 2 at 10 mg/kg daily for 3 months. […] The maximum force of the mouse forelimb was recorded with a grip strength meter. The single inoculation of PFF impaired the grip strength of the forelimb.

For the next assay, the target named is T2, human Nox4 (Homo sapiens, UniProt Q9NPH5).
T2 construct: made in house; host or cells: transgenic Drosophila (UAS-hNox4/UAS-dDuox-RNAi; Da-GAL4/+), membranes from fly homogenate
T2 sequence (Q9NPH5 1-578): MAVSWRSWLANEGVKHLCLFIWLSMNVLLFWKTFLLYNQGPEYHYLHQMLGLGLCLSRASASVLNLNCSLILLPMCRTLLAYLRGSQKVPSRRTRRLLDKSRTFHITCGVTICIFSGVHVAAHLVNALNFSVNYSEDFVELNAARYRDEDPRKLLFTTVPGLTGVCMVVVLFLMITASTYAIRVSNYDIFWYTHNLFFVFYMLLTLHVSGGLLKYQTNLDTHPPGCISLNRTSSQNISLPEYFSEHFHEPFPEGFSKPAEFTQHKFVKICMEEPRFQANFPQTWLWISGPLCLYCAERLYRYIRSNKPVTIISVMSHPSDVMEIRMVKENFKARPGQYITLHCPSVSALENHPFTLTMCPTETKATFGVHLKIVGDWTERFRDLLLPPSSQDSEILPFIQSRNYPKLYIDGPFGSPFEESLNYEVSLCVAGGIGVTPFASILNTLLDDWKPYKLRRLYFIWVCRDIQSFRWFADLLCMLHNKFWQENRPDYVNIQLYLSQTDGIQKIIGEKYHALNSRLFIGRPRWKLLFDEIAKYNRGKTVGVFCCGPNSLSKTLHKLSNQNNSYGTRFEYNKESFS
Put plainly: Lucigenin chemiluminescence assay, human Nox4. The format is biochemical. As to conditions: Drosophila membranes expressing hNox4; average of three assays.
From the text: as §1, §2, §3

A further assay concerns BV2 cells. Put plainly: Nox inhibitory effect in BV2 cells (LPS-induced ROS generation, lucigenin chemiluminescence). The format is cell-based. As to conditions: BV2 cells pre-treated 30 minutes, 0-10000 nM, then LPS 200 ng/ml; FIG. 3. On the procedure:
BV2 cells were washed with Hank's balanced salt solution (HBSS) and incubated in HBSS at 37° C. for 30 minutes. Then, the cells were treated with the compound (compound of Example 1 or compound of Example 2) at various concentrations (0 nM, 1 nM, 10 nM, 100 nM, 1000 nM, and 10000 nM). After 30 minutes, 200 ng/ml of lipopolysaccharide (LPS) and 200 μM of lucigenin were added to the cells. Lucigenin chemiluminescence was detected at 10 second intervals for 15 minutes using a luminometer (GLOMA, Promega).
Specifically, BV2 cells were pre-treated with Compound (A) of Example 1 or Compound (B) of Example 2 for 30 minutes and generation of reactive oxygen species (ROS) was detected after treatment with LPS (200 ng/ml). Data are expressed as mean ±SD (N=3).

The target of the next assay is T3, human Nox2 (Homo sapiens, UniProt P04839).
T3 construct: made in house; host or cells: transgenic Drosophila (UAS-hNox2/UAS-dDuox-RNAi; Da-GAL4/+), membranes from fly homogenate
T3 sequence (P04839 2-570 limits assumed): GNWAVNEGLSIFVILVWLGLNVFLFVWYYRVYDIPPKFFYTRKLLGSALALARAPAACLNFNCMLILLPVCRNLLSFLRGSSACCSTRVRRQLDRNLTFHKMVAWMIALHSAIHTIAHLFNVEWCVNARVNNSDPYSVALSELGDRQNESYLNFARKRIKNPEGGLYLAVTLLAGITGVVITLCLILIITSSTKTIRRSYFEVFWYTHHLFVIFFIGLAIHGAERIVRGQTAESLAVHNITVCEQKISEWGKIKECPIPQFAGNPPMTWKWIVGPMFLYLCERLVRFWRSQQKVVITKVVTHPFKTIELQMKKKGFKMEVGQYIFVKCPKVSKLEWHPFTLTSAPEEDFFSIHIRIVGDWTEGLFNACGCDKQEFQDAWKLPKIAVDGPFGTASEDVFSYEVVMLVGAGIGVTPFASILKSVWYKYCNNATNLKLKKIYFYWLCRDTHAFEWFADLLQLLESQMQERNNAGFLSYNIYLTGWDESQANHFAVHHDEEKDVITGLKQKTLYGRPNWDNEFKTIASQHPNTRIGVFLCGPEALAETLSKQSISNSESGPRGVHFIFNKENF
Description: Lucigenin chemiluminescence assay, human Nox2. Type of assay: biochemical. As to conditions: Drosophila membranes expressing hNox2; average of three assays.
From the text: as §1, §2, §3

Consider `CC(C)CN1C(=O)C(=Cc2ccc(N(C)CCO)cc2)N(C)C1=S` (mixture of isomers) [Example 2, 5-(4-((2-hydroxyethyl)(methyl)amino)benzylidene)-3-isobutyl-1-methyl-2-thioxoimidazolidin-4-one], for which the IC50 (commonly the point on the concentration scale where inhibition reaches its midpoint) against human Nox1 is 1.49 µM; on human Nox4 it was 1.72 µM; against human Nox2, 1.84 µM. Besides, the “amount of α-synuclein in the hippocampus (HP CA1, HP CA3)” value in assay [1] (five months post PFF inoculation, FIG. 11) is given as “significantly decreased”. The “astrocyte pathology (GFAP immuno-positive astrocytes) in the prefrontal cortex (Pfcx)” value in assay [1] (FIG. 12) is listed as “reduced GFAP immuno-positive astrocytes”. Besides, the “microglia pathology (Iba1 immunopositive activated microglia) in Pfcx and HP CA3” value in assay [1] (FIG. 13) is on record as “reduced Ibal immunopositive activated microglia”. In assay [1] (FIG. 14), the “neuromuscular function (forelimb grip strength)” value is listed as “improved the grip strength”. Further, in the assay with BV2 cells, the “generation of reactive oxygen species (ROS)” value is listed as “significant inhibition of ROS generation”.
For `COc1cc(N(C)CCO)ccc1/C=C1\C(=O)N(C2CCCCC2)C(=S)N1C` [Example 3, (E)-3-cyclohexyl-5-(4-((2-hydroxyethyl)(methyl)amino)-2-methoxybenzylidene)-1-methyl-2-thioxoimidazolidin-4-one], the IC50 on human Nox4 stood at 1.72 µM; at human Nox2, 1.58 µM.
In the case of `CN1C(=S)N(C2CCCCC2)C(=O)/C1=C\c1ccc(N(C)CCO)cc1O` [Example 4, (E)-3-cyclohexyl-5-(2-hydroxy-4-((2-hydroxyethyl)(methyl)amino)benzylidene)-1-methyl-2-thioxoimidazolidin-4-one], the IC50 on human Nox4 is 1.4 µM; on human Nox2, 0.52 µM.
With `CN1C(=S)N(Cc2ccccc2)C(=O)/C1=C\c1ccc(N(C)CCCO)cc1` [Example 5, (E)-3-benzyl-5-(4-((3-hydroxypropyl)(methyl)amino)benzylidene)-1-methyl-2-thioxoimidazolidin-4-one], the IC50 amounted to 0.907 µM against human Nox4 and 1.35 µM at human Nox2.
In the case of `CN1C(=S)N(CCc2ccccc2)C(=O)/C1=C\c1ccc(N(C)CCO)cc1` [Example 6, (E)-5-(4-((2-hydroxyethyl)(methyl)amino)benzylidene)-1-methyl-3-phenethyl-2-thioxoimidazolidin-4-one], the IC50 stood at 1.8 µM at human Nox4 and 1.96 µM on human Nox2.
With `CN1C(=S)N(Cc2ccccc2)C(=O)/C1=C\c1ccc(N(C)CCO)cc1O` [Example 7, (E)-3-benzyl-5-(2-hydroxy-4-((2-hydroxyethyl)(methyl)amino)benzylidene)-1-methyl-2-thioxoimidazolidin-4-one], the figures for the IC50 at human Nox4 and against human Nox2 were 0.665 µM and 0.773 µM, respectively.
As for `COc1cc(N(C)CCCO)ccc1/C=C1\C(=O)N(Cc2ccccc2)C(=S)N1C` [Example 8, (E)-3-benzyl-5-(4-((3-hydroxypropyl)(methyl)amino)-2-methoxybenzylidene)-1-methyl-2-thioxoimidazolidin-4-one], the values for the half-maximal inhibitory concentration (IC50) on human Nox4 and at human Nox2 were 0.761 µM and 1.9 µM, respectively.
